This is an account of results in patent US20260274895A1, “DE NOVO DESIGNED MEMBRANE-TRAVERSING AND ORALLY BIOAVAILABLE MACROCYCLES” (UNIVERSITY OF WASHINGTON, priority 2022, published 2026).

For data set [1] the following is noted: PAMPA, PAMPA_Papp_Avg (apparent permeability). (In general: The PAMPA barrier holds no transporters, so it reflects passive diffusion.)
The conditions of data set [2]: PAMPA.
A short description of data set [3]: Plasma exposure, oral bioavailability and tolerability after single-dose IV, SQ and PO administration. As to conditions: in vivo.
For data set [4] the following is noted: mouse, in vivo, iv.
For data set [5] the following is noted: mouse, in vivo.
A further data set can be described thus: in vivo. As to conditions: male, Swiss Albino, mouse; for level at 0.08 h / level at 0.25 h / level at 0.5 h / level at 1 h / level at 3 h / level at 5 h / level at 8 h / level at 24 h: Plasma concentration.
Data set [6] in a line: Parallel artificial membrane permeability assay (PAMPA). As to conditions: average of three replicates; 16-20 hours incubation, 5% DMSO PBS.

Where two headings read alike, the source gives them in different places. Where a SMILES comes first, the peptide text is derived from it. [ ]: non-standard residue; d: D form. dNMeI = CC[C@@H](C)[C@@H](NC)C(=O)O; NMeF = CN[C@@H](Cc1ccccc1)C(=O)O; dNMeF = CN[C@H](Cc1ccccc1)C(=O)O; NMeL = CN[C@@H](CC(C)C)C(=O)O; dNMeL = CN[C@H](CC(C)C)C(=O)O; dNMeV = CN[C@@H](C(=O)O)C(C)C; NMeV = CN[C@H](C(=O)O)C(C)C; NMeA = CN[C@@H](C)C(=O)O; dNMeA = CN[C@H](C)C(=O)O; Sar = CNCC(=O)O

For the compound `CC(C)C[C@@H]1C(=O)N[C@H](CC(C)C)C(=O)N2CCC[C@@H]2C(=O)N2CCC[C@H]2C(=O)N(C)[C@H](CC(C)C)C(=O)N[C@H](CC(C)C)C(=O)N2CCC[C@@H]2C(=O)N2CCC[C@H]2C(=O)N1C` [Design D8.4, pP*llpP*ll] (cyclo([dNMeL][dL][dP]P[dNMeL][dL][dP]P)), the Papp in data set [1] was determined as 0.0358 ×10⁻⁶ cm/s. Further, in data set [2], the “PAMPA_Papp_Avg (apparent permeability)” value was 0.136 ×10⁻⁶ cm/s.

`CC[C@@H](C)[C@H]1NC(=O)[C@@H]2CCCN2C(=O)[C@@H]([C@H](C)CC)NC(=O)CN(C)C(=O)[C@H](CC(C)C)NC(=O)[C@@H](Cc2ccccc2)NC(=O)[C@H](CC(C)C)N(C)C(=O)[C@H]2CCCN2C(=O)[C@@H](CC(C)C)NC(=O)[C@H](CC(C)C)NC(=O)[C@H]2CCCN2C1=O` [Design D11.2] (cyclo(L[Sar][dI]P[dI][dP]L[dL][dP][NMeL][dF])) showed a bioavailability in data set [3] of 7.5 to 11%.

For `CC[C@@H](C)[C@H]1NC(=O)[C@H]([C@@H](C)CC)NC(=O)[C@H](CC(C)C)N(C)C(=O)[C@H]2CCCN2C(=O)[C@@H]([C@H](C)CC)NC(=O)[C@@H]([C@H](C)CC)N(C)C(=O)[C@H](CC(C)C)NC(=O)[C@H]2CCCN2C(=O)[C@@H]2CCCN2C(=O)[C@H](C(C)C)NC(=O)[C@H]2CCCN2C1=O` [Design D11.3, VPpL*iip*LIip] (cyclo(I[dI][dP]VP[dP]L[dNMeI][dI][dP][NMeL])), in data set [4], the half-life was 5.58 h. Further, the “PAMPA_Papp_Avg (apparent permeability)” value in data set [2] was 1.48 ×10⁻⁶ cm/s. Also, in data set [5] (10 mg/kg), the F was found to be 40.06%. In data set [5] (iv, 1 mg/kg), this compound came in with an AUC0-inf of 7187.15 ng·h/mL, an AUC0-last of 6965.11 ng·h/mL, an AUCExtra of 3.09% and a C0 of 3957.56 ng/mL. In data set [5] (iv, 1 mg/kg), the Cl worked out at 2.32 mL/min/kg, the MRT0-last was 4.64 h, the T½ worked out at 5.58 h and the Vd amounted to 1.12 L/kg. In data set [5] (po, 10 mg/kg), this compound came in with an AUC0-inf of 28793.58 ng·h/mL, an AUC0-last of 28242.38 ng·h/mL, an AUCExtra of 1.91% and an MRT0-last of 6.32 h. Also, in data set [5] (sc, 5 mg/kg), the AUC0-inf worked out at 3047.15 ng·h/mL, the AUC0-last is 2122.81 ng·h/mL, the AUCExtra turned out to be 30.33% and the MRT0-last turned out to be 10.71 h. In the data set “in vivo” (iv, 1 mg/kg), the level at 0.08 h was 3750 ng/mL, the level at 0.25 h is 3350 ng/mL, the level at 0.5 h turned out to be 2010 ng/mL and the level at 1 h worked out at 1140 ng/mL. In the data set “in vivo” (iv, 1 mg/kg), this compound came in with a level at 3 h of 512 ng/mL, a level at 5 h of 267 ng/mL, a level at 8 h of 235 ng/mL and a level at 24 h of 27.6 ng/mL. For the same compound, in “in vivo” (po, 10 mg/kg), the level at 0.08 h turned out to be 69.6 ng/mL, the level at 0.25 h amounted to 750 ng/mL, the level at 0.5 h worked out at 2520 ng/mL and the level at 1 h was determined as 2960 ng/mL. Besides, in the data set “in vivo” (po, 10 mg/kg), the level at 3 h came to 3500 ng/mL, the level at 5 h is 2540 ng/mL, the level at 8 h turned out to be 1480 ng/mL and the level at 24 h turned out to be 95 ng/mL. In “in vivo” (sc, 5 mg/kg), this compound gave a bioavailability of 8.48%, a level at 0.08 h of 12.4 ng/mL, a level at 1 h of 44.1 ng/mL and a level at 3 h of 128 ng/mL. In addition, in the data set “in vivo” (sc, 5 mg/kg), the level at 5 h is 148 ng/mL, the level at 8 h came out at 114 ng/mL and the level at 24 h was 57.6 ng/mL.

Regarding `CC[C@H](C)[C@@H]1NC(=O)[C@@H]2CCCN2C(=O)[C@H]2CCCN2C(=O)[C@@H](CC(C)C)NC(=O)[C@@H](CC(C)C)N(C)C(=O)[C@@H](C(C)C)NC(=O)[C@H](C(C)C)NC(=O)[C@H]2CCCN2C(=O)[C@@H]2CCCN2C(=O)[C@H]([C@@H](C)CC)NC(=O)[C@H](C)N(C)C1=O` [Design D11.13, PpVv*llpPI*AI] (cyclo(I[NMeA]IP[dP]V[dV][dNMeL][dL][dP]P)), the apparent permeability coefficient (Papp) in data set [1] came to 1.43 ×10⁻⁶ cm/s.

For `CC(C)C[C@@H]1NC(=O)[C@H](CC(C)C)N(C)C(=O)[C@H]2CCCN2C(=O)[C@H]2CCCN2C(=O)[C@H](CC(C)C)NC(=O)[C@@H](CC(C)C)N(C)C(=O)[C@@H](C)NC(=O)[C@@H](CC(C)C)N(C)C(=O)[C@H]2CCCN2C(=O)[C@@H](CC(C)C)NC(=O)[C@@H](C)N(C)C1=O` [Design D11.15, Lpp*LL*alp*la*l] (cyclo(L[dNMeA][dL][dP][dNMeL][dA][dNMeL]L[dP][dP][NMeL])), in data set [6], the “PAMPA_Papp_Avg (apparent permeability)” value was 1.29 ×10⁻⁶ cm/s.

For `CC(C)C[C@@H]1NC(=O)[C@@H](C)NC(=O)[C@H]2CCCN2C(=O)[C@@H]2CCCN2C(=O)[C@@H](C(C)C)NC(=O)[C@@H](CC(C)C)N(C)C(=O)[C@H]2CCCN2C(=O)[C@H]2CCCN2C(=O)[C@@H](C)N(C)C(=O)[C@H](CC(C)C)N(C)C(=O)[C@@H](Cc2ccccc2)NC1=O` [Design D11.16, Lf*L*app*lvPpa] (cyclo(L[dF][NMeL][dNMeA][dP][dP][dNMeL][dV]P[dP][dA])), the Papp in data set [1] is 0.993 ×10⁻⁶ cm/s.

With `CC[C@H](C)[C@@H]1NC(=O)[C@H](C(C)C)NC(=O)[C@@H](CC(C)C)N(C)C(=O)[C@H](Cc2ccccc2)NC(=O)[C@@H](CC(C)C)N(C)C(=O)[C@@H](C)N(C)C(=O)[C@H]2CCCN2C(=O)[C@@H]2CCCN2C(=O)[C@H](CC(C)C)NC(=O)[C@@H](C)N(C)C(=O)[C@@H]2CCCN2C1=O` [Design D11.20, P*aLPp*a*lF*lVI] (cyclo(F[dNMeL]VIP[dNMeA]LP[dP][dNMeA][dNMeL])), the Papp in data set [1] was determined as 1.1 ×10⁻⁶ cm/s.

Turning to `CC[C@H](C)[C@@H]1NC(=O)[C@@H]2CCCN2C(=O)[C@H]2CCCN2C(=O)[C@@H](Cc2ccccc2)NC(=O)[C@@H](CC(C)C)N(C)C(=O)[C@H](C(C)C)NC(=O)[C@@H](CC(C)C)NC(=O)[C@@H]2CCCN2C(=O)[C@H]2CCCN2C(=O)[C@@H](C)N(C)C(=O)[C@H](C(C)C)N(C)C1=O` [Design D11.21, PI*V*apPlV*lfp] (cyclo(I[NMeV][dNMeA][dP]P[dL]V[dNMeL][dF][dP]P)), in data set [1], the Papp was determined as 0.206 ×10⁻⁶ cm/s.

Take `CC(C)C[C@H]1NC(=O)[C@@H](C)NC(=O)[C@@H](C)NC(=O)[C@H]2CCCN2C(=O)[C@@H]2CCCN2C(=O)[C@H]2CCCN2C(=O)[C@@H](C)NC(=O)[C@@H](Cc2ccccc2)N(C)C(=O)[C@H]2CCCN2C(=O)[C@@H](CC(C)C)NC(=O)[C@@H](CC(C)C)NC1=O` [Design D11.25, lp*fapPpaall] (cyclo([dP][dA][dA][dL][dL][dL][dP][dNMeF][dA][dP]P)): in data set [1], the apparent permeability (Papp) stood at 0.417 ×10⁻⁶ cm/s.

Take `CC[C@H](C)[C@@H]1NC(=O)[C@H](Cc2ccccc2)N(C)C(=O)[C@H]2CCCN2C(=O)[C@H]([C@@H](C)CC)NC(=O)[C@@H](C)N(C)C(=O)[C@@H](C)NC(=O)[C@@H]2CCCN2C(=O)[C@H]2CCCN2C(=O)[C@H](CC(C)C)NC(=O)[C@@H](CC(C)C)NC(=O)[C@H](CC(C)C)NC(=O)[C@H]2CCCN2C1=O` [Design D12.6, p*FIpLILpPa*aI] (cyclo([dA][dNMeA]I[dP][NMeF]I[dP]L[dL]L[dP]P)): the Papp in data set [1] was determined as 1.39 ×10⁻⁶ cm/s.

For the compound `CC(C)C[C@@H]1C(=O)N(C)[C@@H](Cc2ccccc2)C(=O)N[C@@H](C(C)C)C(=O)N2CCC[C@H]2C(=O)NCC(=O)N2CCC[C@H]2C(=O)N(C)[C@H](CC(C)C)C(=O)N[C@@H](C(C)C)C(=O)N[C@H](CC(C)C)C(=O)N1C` [SEQ ID NO 69, *lvl*l*FVPGP] (cyclo(GP[dNMeL]V[dL][dNMeL][NMeF]VP)), the Papp in data set [1] came out at 0.946 ×10⁻⁶ cm/s.

As for `CC[C@@H](C)[C@H]1NC(=O)[C@H](CC(C)C)N(C)C(=O)[C@H]2CCCN2C(=O)[C@H](CC(C)C)NC(=O)[C@@H](Cc2ccccc2)N(C)C(=O)[C@H](CC(C)C)N(C)C(=O)[C@@H](C(C)C)NC(=O)[C@H](C)NC(=O)[C@H]2CCCN2C(=O)[C@@H]2CCCN2C1=O` [SEQ ID NO 94, *L*fLp*LiPpAv] (cyclo(A[dV][NMeL][dNMeF]L[dP][NMeL][dI]P[dP])), in data set [1], the Papp amounted to 2.69 ×10⁻⁶ cm/s.

As to `CC(C)C[C@@H]1NC(=O)[C@@H]2CCCN2C(=O)[C@@H](Cc2ccccc2)NC(=O)[C@H](C)N(C)C(=O)[C@H](CC(C)C)NC(=O)[C@H](CC(C)C)N(C)C(=O)[C@@H](C)NC(=O)[C@@H](CC(C)C)NC(=O)[C@@H]2CCCN2C(=O)[C@@H](Cc2ccccc2)NC1=O` [SEQ ID NO 108, LfPla*LL*AfP] (cyclo(L[NMeA][dF]PL[dF]P[dL][dA][NMeL])), the apparent permeability (Papp) in data set [1] was 3.92 ×10⁻⁶ cm/s.

As to `CC[C@@H](C)[C@H]1NC(=O)[C@@H](CC(C)C)N(C)C(=O)[C@@H]2CCCN2C(=O)[C@H](C(C)C)NC(=O)[C@@H](C)N(C)C(=O)[C@@H]2CCCN2C(=O)[C@@H](CC(C)C)NC(=O)[C@@H](C(C)C)N(C)C(=O)[C@@H]2CCCN2C(=O)[C@H](C)NC(=O)[C@H](C(C)C)NC(=O)[C@@H]2CCCN2C1=O` [SEQ ID NO 117, VP*liPVAP*vlP*a] (cyclo(AP[dNMeV][dL]P[dNMeA]VP[dNMeL][dI]PV)), the “PAMPA_Papp_Avg (apparent permeability)” value in data set [6] was 0.1 ×10⁻⁶ cm/s.

By Papp is commonly meant a coefficient for how fast a substance crosses the barrier. One may read the bioavailability as dose-corrected exposure relative to a reference, in per cent. A lower bioavailability goes with little systemic uptake. As usually defined, the half-life is how long it takes for the measured level to halve. Higher therefore signals slow loss. A word on the Vd: it is the apparent volume that relates the amount in the body to the concentration in plasma or blood.
